One data set concerns NfL, Aβ40, Aβ42. In words: Plasma NfL and plasma/brain Aβ40, Aβ42 ELISA in chronically treated 5xFAD mice. The format is in vivo. Conditions: chronic 100 mg/kg BID PO. The protocol: V-PLEX Aβ Peptide Panel 1 (4G8) Kit (Meso Scale Diagnostics, LLC #[…]) was used for Aβ40/Aβ42 detection and S-PLEX Neurofilament L Kit (Meso Scale Diagnostics, LLC # […]) was used for NfL analysis, according to the manufacturer's protocols. […] The supernatant recovered was the DEA soluble fraction containing the soluble Aβ isoforms. […] For ELISA, the DEA-soluble fraction was diluted at 10 times and 40 times and the insoluble fraction was diluted at 40 times and 300 times. The assay plates were read by MESO […] plate reader and analyzed using Discovery Workbench Software (MesoScale Discovery). All samples were run in duplicate and averaged for analysis. Brain concentrations of the soluble and insoluble Aβ were normalized to total protein. All samples from a single plasma collection timepoint were run together on the appropriate MSD plate with the kit provided calibration standards.
For orientation: An ELISA detects its analyte on a solid surface through an enzyme-linked reagent.

A short description of data set [1]: Body weight during chronic twice daily oral dosing of aged 5xFAD mice. Conditions: 8- to 9-month-old 5xFAD, twice daily oral administration, within first 31 days; seen with both NVS-PAK1-1 and vehicle. The format is in vivo. The protocol: Serial blood was collected from n = 3 per treatment group at 0.5, 1, 2, and 4 hours post dose; with terminal blood and brain collected at 4 hours post dose. A staggered cohort of n = 3 per treatment group were assigned to serial blood collections at 0.5, 1, 2, and 8 hours post dose with terminal blood and brain collected at 4 and 24 hours post dose. Informed by exposure data from the initial PK/PD study, a subsequent chronic PK/PD study was designed to evaluate twice daily treatment of 100 mg/kg (PO) in female and male 5xFAD mice compared to age‐ and sex‐matched vehicle‐treated 5xFAD and vehicle‐treated WT littermate controls (Table S2 in supporting information). Terminal blood and brain was collected at 4 hours after the final dose. […] All in vivo target engagement and PK/PD studies were conducted under blinded conditions for age, genotype, and treatment, and the blind was maintained until after analyses were conducted.
Drug concentrations were prepared immediately before dosing each day. The dose volume was delivered at 10 mL/kg based on each subject's daily weight collected just prior to the morning dose and administered via PO. For the chronic PD study, twice daily dosing (BID) was conducted between 7:00 and 9:00 am each morning and 3:00 to 5:00 pm each evening with the same day's formulation stored at 4°C between dosing intervals.

Data set [2] has as its system 14 DIV hippocampal neurons. In words: oAβ-induced dendrite degeneration (MAP2 dendrite length, number, complexity) in cultured hippocampal neurons. In kind it is cell-based, mouse. The method, then: For in vitro study, all animal procedures were conducted in accordance with the National Institutes of Health Guide for the Care and Use of Laboratory Animals using protocols approved by the institutional animal care and use committee at Stanford University. Timed pregnant C57BL/6 mice (Strain code: 027) were purchased from Charles River Laboratories and delivered on embryonic day 15 (E15), after which E16 embryos were used for primary hippocampal cultures. Primary embryonic mouse hippocampal neuron cultures were plated on poly‐D‐lysine‐coated (10 µg/mL) glass cover slips at 40,000 to 50,000 cells per well in 12‐well plates (Corning Life Sciences). Cells were seeded in plating medium DMEM/F12 supplemented with 10% fetal bovine serum and 1 × penicillin/streptomycin (PS) for 2 hours. Medium was then changed to B‐27 Plus Neuronal Culture System (Invitrogen) supplemented with PS, and 2 mM glutamine.
Immunofluorescence was performed as described previously.[24] Briefly, cultured hippocampal neurons were fixed in 4% formaldehyde for 20 minutes, permeabilized for 6 minutes in 80% ice‐cold methanol, and incubated with primary antibodies at 4°C overnight. Primary antibodies used were rabbit polyclonal MAP2 antibody for labeling dendrites (1:1000, #8707, Cell Signaling) and mouse monoclonal drebrin antibody for labeling dendritic spines (1:300; Cat#ADI‐NBA‐110, Enzo). Secondary antibodies consisted of donkey antirabbit or antimouse conjugated with either FITC or Cy3 (1:400; Jackson ImmunoResearch Laboratories, Inc.).
The cultured hippocampal neurons were imaged using an oil‐based 63x objective on a Leica Stellaris 5 confocal microscope. The cell nucleus was stained with DAPI and imaged at a wavelength of 405 nm (blue channel), the dendrites stained by MAP2 were imaged at 488 nm wavelength (green channel), and the drebrin‐stained spines were imaged at a wavelength of 561 nm (red channel). Z‐stack images of neurons were acquired at a 1024 × 1024 resolution, a zoom factor of 1.0, and a z‐step size of 0.5 µm. The number of steps for every z‐stack picture of a neuron were determined by the size of the neuron in the z‐plane, to ensure that the entirety of a neuron is captured in the picture. The areas to be imaged were selected systematically, starting from the top‐left region to proceeding to the bottom‐right region of a coverslip. For imaging, preference was given to field of views containing isolated neurons versus clustered neurons.
For quantification of drebrin‐positive spines in vitro, the images were analyzed using Imaris 9.3 software. Each image consisted of one major neuron and the “filaments” option in Imaris was applied to manually trace along the dendrites of every neuron, by placing starting and seed points at the beginning and along the length of the dendrites, respectively. The largest dendrite diameter (i.e., Starting Point) was set at 9.00 µm threshold while the thinnest dendrite diameter (i.e., Seed Point) was set at 1.00 µm threshold. After manually tracing the dendrites, the spines along the dendrites were assessed using the automatic “spine detection” function in Imaris. The thinnest spine diameter was set at 0.80 µm threshold while the maximum spine length was set at 5.00 µm. The spine density (number of spines/dendrite length) was then calculated for each neuron. All image acquisition and quantification were performed in a blind manner. For in vitro quantification of dendrite degeneration, Neurolucida (MBF Biosciences) in the manual mode was used to measure the total dendritic length, numbers of dendrites, and dendritic complexity for each neuron.

The subject of data set [3] is kinome; broad panel of proteases, receptors, and bromodomains. The settings on record: cited from earlier work.

On to `CC(C)NC(=O)N1CC[C@H](NC2=Nc3cc(F)ccc3N(CC(F)F)c3ccc(Cl)cc32)C1` [NVS‐PAK1‐1, (S)‐3‐([2‐chloro‐5‐(2,2‐difluoroethyl)‐8‐fluoro‐5H‐dibenzo[b,e][1,4]diazepin‐11‐yl]amino)‐N‐isopropylpyrrolidine‐1‐carboxamide], for which the “brain amyloid accumulation, soluble (DEA) and insoluble (FA) fractions” value in the data set with NfL, Aβ40, Aβ42 (5xFAD) was “mirrored Aβ plasma values”. Besides, the “plasma NfL” value in the data set with NfL, Aβ40, Aβ42 (young, aged, male, or female 5xFAD cohorts) was “did not significantly lower”. Besides, the weight loss entry in data set [1] was “≈ 20%”. Besides, in data set [2] (oAβ 1 µM + 10 nM, 24 h, vs oAβ alone), the dendritic complexity result is on record as “preservation of complexity”. The “dendrite number per neuron” value in data set [2] (oAβ 1 µM + inhibitor 24 h vs oAβ alone, NVS-PAK1-1 10 nM, AZ 1 nM, G 5 nM) is given as “significantly increased dendrite number per neuron”. For the same molecule, in data set [2] (oAβ 1 µM + inhibitor 24 h vs oAβ alone, NVS-PAK1-1 10 nM, PAK1-C 10 nM, AZ 1 nM, G 5 nM), the “total dendrite length per neuron” value is reported as “preserved dendrite length”. Further, in data set [3], the “cross-reactivity with a broad panel of proteases, receptors, and bromodomains” value is reported as “no significant cross‐reactivity”.

Values taken from paper PMC12741935 (Alzheimer's & Dementia, 2025).
